Assay results published in patent US4281121A, “1,3,4-Thiadiazole-2-carboxylic acid derivatives, process for making the same and fungicidal and nematocidal compositions containing same” (Schering Aktiengesellschaft, priority 1978, dated 1981).

System: Pythium ultimum
Experiment: Threshold concentration test for use of the compounds against Pythium ultimum (infested soil, garden peas)
Assay type: in vivo
Design: key to root evaluation (1-4): 4: white roots without fungous necrosis; 3: white roots, minor fungous necrosis; 2: brown roots, already more pronounced fungous necrosis; 1: heavy fungous necrosis, roots rotted
Details: 20 mg/l soil; 3 weeks
In short: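 Pulverulent agents at 20% concentration mixed evenly into soil heavily infested with Pythium ultimum, then garden peas ('Wunder von Kelvedon', 20 per dish) sown at once. After three weeks at 20–24 °C in a hothouse, sound peas counted and roots scored on a 1–4 scale.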

SMILES | root evaluation (1-4)
CCS(=O)(=O)c1nnc(C(=O)NCCOC)s1 [5-ethylsulfonyl-1,3,4-thiadiazole-2-carboxylic acid-(2-methoxyethyl)-amide] | 1
CCCCNC(=O)c1nnc(S(=O)(=O)CC)s1 [5-ethylsulfonyl-1,3,4-thiadiazole-2-carboxylic acid-butylamide] | 1

Same assay, conditions: 20 mg/l soil; 20 grains per dish; 3 weeks at 20-24° C.

SMILES | number of sound peas
CCS(=O)(=O)c1nnc(C(=O)NCCOC)s1 [5-ethylsulfonyl-1,3,4-thiadiazole-2-carboxylic acid-(2-methoxyethyl)-amide] | 13
CCCCNC(=O)c1nnc(S(=O)(=O)CC)s1 [5-ethylsulfonyl-1,3,4-thiadiazole-2-carboxylic acid-butylamide] | 8

Same assay, conditions: 40 mg/l soil; 3 weeks

SMILES | root evaluation (1-4)
CCS(=O)(=O)c1nnc(C(=O)NCCOC)s1 [5-ethylsulfonyl-1,3,4-thiadiazole-2-carboxylic acid-(2-methoxyethyl)-amide] | 4
CCCCNC(=O)c1nnc(S(=O)(=O)CC)s1 [5-ethylsulfonyl-1,3,4-thiadiazole-2-carboxylic acid-butylamide] | 4

Same assay, conditions: 40 mg/l soil; 20 grains per dish; 3 weeks at 20-24° C.

SMILES | number of sound peas
CCS(=O)(=O)c1nnc(C(=O)NCCOC)s1 [5-ethylsulfonyl-1,3,4-thiadiazole-2-carboxylic acid-(2-methoxyethyl)-amide] | 16
CCCCNC(=O)c1nnc(S(=O)(=O)CC)s1 [5-ethylsulfonyl-1,3,4-thiadiazole-2-carboxylic acid-butylamide] | 16

Same assay, conditions: 80 mg/l soil; 3 weeks

SMILES | root evaluation (1-4)
CCS(=O)(=O)c1nnc(C(=O)NCCOC)s1 [5-ethylsulfonyl-1,3,4-thiadiazole-2-carboxylic acid-(2-methoxyethyl)-amide] | 4
CCCCNC(=O)c1nnc(S(=O)(=O)CC)s1 [5-ethylsulfonyl-1,3,4-thiadiazole-2-carboxylic acid-butylamide] | 4

Same assay, conditions: 80 mg/l soil; 20 grains per dish; 3 weeks at 20-24° C.

SMILES | number of sound peas
CCS(=O)(=O)c1nnc(C(=O)NCCOC)s1 [5-ethylsulfonyl-1,3,4-thiadiazole-2-carboxylic acid-(2-methoxyethyl)-amide] | 16
CCCCNC(=O)c1nnc(S(=O)(=O)CC)s1 [5-ethylsulfonyl-1,3,4-thiadiazole-2-carboxylic acid-butylamide] | 20

System: Tilletia caries
Experiment: Treatment of oat seeds infested with Tilletia caries (spore germination)
Assay type: in vivo
Details: 10 g active agent per 100 kg

SMILES | % activity
CCS(=O)(=O)c1nnc(C(=O)NCCOC)s1 [5-ethylsulfonyl-1,3,4-thiadiazole-2-carboxylic acid-(2-methoxyethyl)-amide] | 100%
CCCCNC(=O)c1nnc(S(=O)(=O)CC)s1 [5-ethylsulfonyl-1,3,4-thiadiazole-2-carboxylic acid-butylamide] | 100%

Same assay, conditions: 20 g active agent per 100 kg

SMILES | % activity
CCS(=O)(=O)c1nnc(C(=O)NCCOC)s1 [5-ethylsulfonyl-1,3,4-thiadiazole-2-carboxylic acid-(2-methoxyethyl)-amide] | 100%
CCCCNC(=O)c1nnc(S(=O)(=O)CC)s1 [5-ethylsulfonyl-1,3,4-thiadiazole-2-carboxylic acid-butylamide] | 100%

Same assay, conditions: 50 g active agent per 100 kg

SMILES | % activity
CCS(=O)(=O)c1nnc(C(=O)NCCOC)s1 [5-ethylsulfonyl-1,3,4-thiadiazole-2-carboxylic acid-(2-methoxyethyl)-amide] | 100%
CCCCNC(=O)c1nnc(S(=O)(=O)CC)s1 [5-ethylsulfonyl-1,3,4-thiadiazole-2-carboxylic acid-butylamide] | 100%

System: Alternaria solani
Experiment: Inhibition of fungus in a nutrient solution: Alternaria solani;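 also: 0 means no fungus growth and higher grades mean more surface covered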
Assay type: cell-based
Details: 0.002%, 6 days at 21-23° C.

SMILES | fungus development on the surface of the nutrient solution (0-5)
CCCCNC(=O)c1nnc(S(=O)(=O)CC)s1 [5-ethylsulfonyl-1,3,4-thiadiazole-2-carboxylic acid-butylamide] | 1

Same assay, conditions: 0.004%, 6 days at 21-23° C.

SMILES | fungus development on the surface of the nutrient solution (0-5)
CCCCNC(=O)c1nnc(S(=O)(=O)CC)s1 [5-ethylsulfonyl-1,3,4-thiadiazole-2-carboxylic acid-butylamide] | 0

System: Helminthosporium gramineum
Experiment: Seed treatment in open field tests for infestation by Helminthosporium gramineum (barley)
Assay type: in vivo
Details: summer barley; 25 g active agent/100 kg barley; about 3 months
Experimental: Seed treatment in open field tests for infestation by Helminthosporium gramineum
The active agents were used in the form of pulverulent compositions. After about 8 months in case of winter barley and after about 3 months in case of summer barley the infested plants were counted and the activity was calculated by the formula [formula]

SMILES | % activity
CCS(=O)(=O)c1nnc(C(=O)NCCOC)s1 [5-ethylsulfonyl-1,3,4-thiadiazole-2-carboxylic acid-(2-methoxyethyl)-amide] | 92%

Same assay, conditions: summer barley; 50 g active agent/100 kg barley; about 3 months

SMILES | % activity
CCS(=O)(=O)c1nnc(C(=O)NCCOC)s1 [5-ethylsulfonyl-1,3,4-thiadiazole-2-carboxylic acid-(2-methoxyethyl)-amide] | 98%

Same assay, conditions: summer barley; 100 g active agent/100 kg barley; about 3 months

SMILES | % activity
CCS(=O)(=O)c1nnc(C(=O)NCCOC)s1 [5-ethylsulfonyl-1,3,4-thiadiazole-2-carboxylic acid-(2-methoxyethyl)-amide] | 99.8%
CCCCNC(=O)c1nnc(S(=O)(=O)CC)s1 [5-ethylsulfonyl-1,3,4-thiadiazole-2-carboxylic acid-butylamide] | 100%

System: Septoria nodorum
Experiment: Treatment of oat seeds against Septoria nodorum
Assay type: in vivo
Details: 50 g active agent/100 kg seeds; 4 weeks
Experimental: Effects of the treatment of oat seeds against Septoria nodorum
They were then seeded on a moist substrate for germination. As a control untreated seeds were likewise seeded. At about 6° C. the seed was incubated in an air-conditioned chamber until after 4 weeks the proportion of diseased seeds could be determined and the activity of the fungicidal compounds was calculated on the basis of the following formula: [formula]
The active agents were applied in the form of 20% concentration pulverulent compositions.

SMILES | % activity
CCS(=O)(=O)c1nnc(C(=O)NCCOC)s1 [5-ethylsulfonyl-1,3,4-thiadiazole-2-carboxylic acid-(2-methoxyethyl)-amide] | 86%

System: Piricularia oryzae
Experiment: not given
Assay type: in vivo
Details: concentration of active agent 0.1 (percentages); 5 days

SMILES | % activity
CCS(=O)(=O)c1nnc(C(=O)NCCOC)s1 [5-ethylsulfonyl-1,3,4-thiadiazole-2-carboxylic acid-(2-methoxyethyl)-amide] | 90%
CCCCNC(=O)c1nnc(S(=O)(=O)CC)s1 [5-ethylsulfonyl-1,3,4-thiadiazole-2-carboxylic acid-butylamide] | 97%

System: Fusarium avenaceum
Experiment: Inhibition of fungus in a nutrient solution: Fusarium avenaceum;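 also: 0 means no fungus growth and higher grades mean more surface covered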
Assay type: cell-based
Details: 0.002%, 6 days at 21-23° C.
Experimental: Inhibition of fungus in a nutrient solution
20 ml of a nutrient solution of grape juice and water (1:1) were filled into a glass vial of a 100 ml capacity and were mixed with the pulverulent active agents which appear from the subsequent table. Thereafter, the solution was inoculated with conidia (spores) of the test fungi.
After an incubation time of 6 days at 21° to 23° C. the fungus development on the surface of the nutrient solution was evaluated. The test fungi used were the following: Penicillium digitatum, Botrytis cinerea, Alternaria solani, Fusarium avenaceum.
The evaluation was carried out at a scale from 0 to 5 as follows: […]

SMILES | fungus development on the surface of the nutrient solution (0-5)
CCCCNC(=O)c1nnc(S(=O)(=O)CC)s1 [5-ethylsulfonyl-1,3,4-thiadiazole-2-carboxylic acid-butylamide] | 1

Same assay, conditions: 0.004%, 6 days at 21-23° C.

SMILES | fungus development on the surface of the nutrient solution (0-5)
CCCCNC(=O)c1nnc(S(=O)(=O)CC)s1 [5-ethylsulfonyl-1,3,4-thiadiazole-2-carboxylic acid-butylamide] | 0

System: Botrytis cinerea
Experiment: Inhibition of fungus in a nutrient solution: Botrytis cinerea;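 also: 0 means no fungus growth and higher grades mean more surface covered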
Assay type: cell-based
Details: 0.002%, 6 days at 21-23° C.

SMILES | fungus development on the surface of the nutrient solution (0-5)
CCCCNC(=O)c1nnc(S(=O)(=O)CC)s1 [5-ethylsulfonyl-1,3,4-thiadiazole-2-carboxylic acid-butylamide] | 2 (5 to 10% of the surface covered by the fungus turf)

Same assay, conditions: 0.004%, 6 days at 21-23° C.

SMILES | fungus development on the surface of the nutrient solution (0-5)
CCCCNC(=O)c1nnc(S(=O)(=O)CC)s1 [5-ethylsulfonyl-1,3,4-thiadiazole-2-carboxylic acid-butylamide] | 0

System: Penicillium digitatum
Experiment: Inhibition of fungus in a nutrient solution: Penicillium digitatum;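 also: 0 means no fungus growth and higher grades mean more surface covered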
Assay type: cell-based
Details: 0.002%, 6 days at 21-23° C.

SMILES | fungus development on the surface of the nutrient solution (0-5)
CCCCNC(=O)c1nnc(S(=O)(=O)CC)s1 [5-ethylsulfonyl-1,3,4-thiadiazole-2-carboxylic acid-butylamide] | 1

Same assay, conditions: 0.004%, 6 days at 21-23° C.

SMILES | fungus development on the surface of the nutrient solution (0-5)
CCCCNC(=O)c1nnc(S(=O)(=O)CC)s1 [5-ethylsulfonyl-1,3,4-thiadiazole-2-carboxylic acid-butylamide] | 0

System: Helminthosporium gram
Experiment: not given
Details: 10 g active agent per 100 kg; about 5 weeks

SMILES | % activity
CCS(=O)(=O)c1nnc(C(=O)NCCOC)s1 [5-ethylsulfonyl-1,3,4-thiadiazole-2-carboxylic acid-(2-methoxyethyl)-amide] | 100%

Same assay, conditions: 20 g active agent per 100 kg; about 5 weeks

SMILES | % activity
CCS(=O)(=O)c1nnc(C(=O)NCCOC)s1 [5-ethylsulfonyl-1,3,4-thiadiazole-2-carboxylic acid-(2-methoxyethyl)-amide] | 99%

Same assay, conditions: 50 g active agent per 100 kg; about 5 weeks

SMILES | % activity
CCS(=O)(=O)c1nnc(C(=O)NCCOC)s1 [5-ethylsulfonyl-1,3,4-thiadiazole-2-carboxylic acid-(2-methoxyethyl)-amide] | 100%
